Data as given in ChEMBL document CHEMBL1201862, “PubChem BioAssay data set” (2004).
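Values below derive from 48-hour exposures of cells grown in 96-well plates, with endpoints linearly interpolated between the two concentrations bracketing the appropriate inhibition level. At the GI50, growth is halved.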 Activity calls are given as the source filed them. Rule as the data show it: active = GI50 up to about 1.1 µM and inactive = higher.

Assays:
Assay in all cases: NCI-60 cell line screen, 48 h
[1] = system: OVCAR-8
[2] = system: Malme-3M
[3] = system: 786-0
[4] = system: UACC-62
[5] = system: HCC 2998
[6] = system: LOX IMVI
[7] = system: HOP-62
[8] = system: OVCAR-4
[9] = system: MDA-MB-435
[10] = system: U-251
[11] = system: SK-OV-3
[12] = system: K562
[13] = system: SK-MEL-28
[14] = system: EKVX
[15] = system: SR
[16] = system: NCI/ADR-RES
[17] = system: NCI-H23
[18] = system: ACHN
[19] = system: T47D
[20] = system: SF-539

Measured: GI50

CC(=O)N1N=C(c2ccccc2Nc2ccccc2C2=NN(C(C)=O)C(c3ccccc3)O2)OC1c1ccccc1 (centres undefined)
inactive: [1] 71.6 µM | [2] > 100 µM | [3] > 100 µM | [4] 35 µM | [5] > 100 µM | [6] 81.8 µM | [7] > 100 µM | [8] 29.8 µM | [9] 14.7 µM | [10] 63.5 µM | [11] 30.3 µM | [12] 30.7 µM | [13] > 100 µM | [14] 45.4 µM | [15] > 100 µM | [16] 55.6 µM | [17] 60.7 µM | [18] 86.5 µM | [19] > 100 µM

NC1=NNC2(C(N)=N1)c1ccccc1-c1ccccc12
inactive: [1] > 10 µM | [2] > 10 µM | [3] > 10 µM | [20] > 10 µM | [4] > 10 µM | [5] > 10 µM | [6] > 10 µM | [7] > 10 µM | [8] > 10 µM | [9] > 10 µM | [11] > 10 µM | [13] > 10 µM | [14] > 10 µM | [15] > 10 µM | [16] > 10 µM | [17] > 10 µM | [18] > 10 µM | [19] > 10 µM

Cn1c(-c2ccccc2)cc2c3ccsc3c3ccsc3c21
inactive: [1] > 100 µM | [2] > 100 µM | [3] 79.3 µM | [20] > 100 µM | [4] > 100 µM | [5] > 100 µM | [6] > 100 µM | [7] > 100 µM | [8] > 100 µM | [9] > 100 µM | [10] > 100 µM | [11] > 100 µM | [13] > 100 µM | [15] 39.1 µM | [16] > 100 µM | [17] > 100 µM | [18] > 100 µM | [19] 6.03 µM

CC(C)(C)OC(=O)NC(CCCCNC(=O)OCc1ccccc1)C(=O)NCCNc1ccc(NCCNC(=O)C(CCCCNC(=O)OCc2ccccc2)NC(=O)OC(C)(C)C)c2c1C(=O)c1ccccc1C2=O (centres undefined)
inactive: [1] 8.36 µM | [2] > 86.3 µM | [3] > 56.9 µM | [20] 17.6 µM | [4] 23 µM | [5] 8.67 µM | [6] > 90.8 µM | [7] 23.9 µM | [8] > 100 µM | [9] 31.5 µM | [10] 3.18 µM | [11] 25.4 µM | [13] 14.7 µM | [14] > 100 µM | [15] 24.3 µM | [16] 19.8 µM | [17] 27.5 µM | [18] > 100 µM | [19] 5.11 µM
